These results are taken from the supplement of paper PMC10307832.

Test in all cases: relative viability (nuclei count vs DMSO), 5 days (fraction); higher = more cells survive
Compound in test [1]: CN(C)C(=N)NC(=N)N [Metformin] + CS(=O)(=O)N1CCN(Cc2cc3nc(-c4cccc5[nH]ncc45)nc(N4CCOCC4)c3s2)CC1 [Pictilisib] (partner 1 µM)
The procedure, abridged:
(§1)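 Five library-drug doses in √10 steps were combined with a fixed anchor-drug dose, or a single drug was given alone, by pin tool to lung cancer cell lines in 1536-well plates the day after seeding. Nuclei were stained and counted after 5 days. Relative viability is the nuclei count in treated wells over that in vehicle wells, taken as the median of duplicate plates.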

Compound in test [2]: CN(C)C(=N)NC(=N)N [Metformin] + CC(C)C[C@H](NC(=O)[C@H](Cc1ccccc1)NC(=O)c1cnccn1)B(O)O [Bortezomib] (partner 0.002 µM)
The procedure, abridged: as §1

Compound in test [3]: N#CC1(c2ccc(NC(=O)c3cccnc3NCc3ccncc3)cc2)CCCC1 [Apatinib] + Cc1nc(Nc2ncc(C(=O)Nc3c(C)cccc3Cl)s2)cc(N2CCN(CCO)CC2)n1 [Dasatinib] (partner 0.075 µM)
The procedure, abridged:
as §1

Compound in test [4]: CN(C)C(=N)NC(=N)N [Metformin] + O=C(c1cc(Cc2n[nH]c(=O)c3ccccc23)ccc1F)N1CCN(C(=O)C2CC2)CC1 [Olaparib] (partner 8 µM)
An outline of the steps: as §1

Turning to NCI-H2085, the relative viability in test [1] (first compound 10 µM) stood at 0.408; in test [1] (first compound 31.62 µM), 0.492; in test [1] (first compound 100 µM), 0.472; in test [1] (first compound 316.23 µM) it was 0.439; in test [1] (first compound 1000 µM) it was 0.545; in test [2] (first compound 10 µM), 1.1. Also, the relative viability in test [2] (first compound 31.62 µM) was 1.05; in test [2] (first compound 100 µM) it was 1.01; in test [2] (first compound 316.23 µM), 1.09; in test [2] (first compound 1000 µM) it was 1.16; in test [3] (first compound 0.08 µM), 0.229; in test [3] (first compound 0.253 µM), 0.229. Further, the relative viability in test [3] (first compound 0.8 µM) came to 0.231; in test [3] (first compound 2.53 µM), 0.243; in test [3] (first compound 8 µM) it was 0.215; in test [4] (first compound 10 µM), 0.621; in test [4] (first compound 31.62 µM), 0.633; in test [4] (first compound 100 µM), 0.596. Further, the relative viability in test [4] (first compound 316.23 µM) was found to be 0.591; in test [4] (first compound 1000 µM), 0.654.

Consider NCI-H2087, for which the relative viability in test [1] (first compound 10 µM) was found to be 0.909; in test [1] (first compound 31.62 µM), 1.01; in test [1] (first compound 100 µM) it was 0.772; in test [1] (first compound 316.23 µM), 0.782; in test [1] (first compound 1000 µM), 0.957; in test [2] (first compound 10 µM), 0.564. In addition, the relative viability was 0.791 in test [2] (first compound 31.62 µM); 0.691 in test [2] (first compound 100 µM); 0.786 in test [2] (first compound 316.23 µM); 0.744 in test [2] (first compound 1000 µM); 0.929 in test [3] (first compound 0.08 µM); 0.747 in test [3] (first compound 0.253 µM). In addition, the relative viability is 0.763 in test [3] (first compound 0.8 µM); 0.685 in test [3] (first compound 2.53 µM); 0.524 in test [3] (first compound 8 µM); 0.316 in test [4] (first compound 10 µM); 0.453 in test [4] (first compound 31.62 µM); 0.414 in test [4] (first compound 100 µM). Further, the values for the relative viability in test [4] (first compound 316.23 µM) and in test [4] (first compound 1000 µM) were 0.426 and 0.473, respectively.

Regarding NCI-H2126, the relative viability in test [1] (first compound 10 µM) is 0.519; in test [1] (first compound 31.62 µM) it was 0.474; in test [1] (first compound 100 µM) it was 0.514; in test [1] (first compound 316.23 µM), 0.472; in test [1] (first compound 1000 µM), 0.485; in test [2] (first compound 10 µM), 1. For the same cell line, the relative viability in test [2] (first compound 31.62 µM) was 1.11; in test [2] (first compound 100 µM), 1.09; in test [2] (first compound 316.23 µM), 1.09; in test [2] (first compound 1000 µM), 1.09; in test [3] (first compound 0.08 µM), 0.584; in test [3] (first compound 0.253 µM), 0.514. Also, the relative viability in test [3] (first compound 0.8 µM) was 0.52; in test [3] (first compound 2.53 µM), 0.488; in test [3] (first compound 8 µM), 0.446; in test [4] (first compound 10 µM), 0.767; in test [4] (first compound 31.62 µM) it was 0.88; in test [4] (first compound 100 µM) it was 0.911. The relative viability in test [4] (first compound 316.23 µM) turned out to be 0.833; in test [4] (first compound 1000 µM), 0.856.

As to NCI-H2228, the relative viability in test [1] (first compound 10 µM) is 0.306; in test [1] (first compound 31.62 µM) it was 0.294; in test [1] (first compound 316.23 µM), 0.227; in test [1] (first compound 1000 µM) it was 0.448; in test [2] (first compound 10 µM), 1.44; in test [2] (first compound 31.62 µM), 1.09. For the same cell line, the relative viability in test [2] (first compound 316.23 µM) turned out to be 0.956; in test [2] (first compound 1000 µM), 1.13; in test [3] (first compound 0.08 µM), 0.538; in test [3] (first compound 0.253 µM), 0.533; in test [3] (first compound 0.8 µM), 0.518; in test [3] (first compound 2.53 µM), 0.387. The relative viability in test [3] (first compound 8 µM) came out at 0.295; in test [4] (first compound 10 µM) it was 0.399; in test [4] (first compound 31.62 µM), 0.344; in test [4] (first compound 100 µM), 0.483; in test [4] (first compound 316.23 µM), 0.802; in test [4] (first compound 1000 µM), 0.578.

For NCI-H2347, the relative viability in test [1] (first compound 10 µM) came to 0.665; in test [1] (first compound 31.62 µM), 0.834; in test [1] (first compound 100 µM), 1.02; in test [1] (first compound 316.23 µM), 0.492; in test [1] (first compound 1000 µM), 0.659; in test [2] (first compound 10 µM) it was 1.09. The relative viability was 1.1 in test [2] (first compound 31.62 µM); 1.23 in test [2] (first compound 100 µM); 1.09 in test [2] (first compound 316.23 µM); 0.641 in test [2] (first compound 1000 µM); 0.343 in test [3] (first compound 0.08 µM); 0.26 in test [3] (first compound 0.253 µM). Moreover, the relative viability was found to be 0.371 in test [3] (first compound 0.8 µM); 0.276 in test [3] (first compound 2.53 µM); 0.352 in test [3] (first compound 8 µM); 0.585 in test [4] (first compound 10 µM); 0.506 in test [4] (first compound 31.62 µM); 0.376 in test [4] (first compound 100 µM). Moreover, the relative viability in test [4] (first compound 316.23 µM) turned out to be 0.465; in test [4] (first compound 1000 µM), 0.512.

Regarding NCI-H2405, the relative viability came to 0.469 in test [1] (first compound 10 µM); 0.518 in test [1] (first compound 31.62 µM); 0.322 in test [1] (first compound 100 µM); 0.373 in test [1] (first compound 316.23 µM); 0.389 in test [1] (first compound 1000 µM); 0.55 in test [2] (first compound 10 µM). Also, the relative viability was found to be 1.01 in test [2] (first compound 31.62 µM); 0.972 in test [2] (first compound 100 µM); 0.924 in test [2] (first compound 316.23 µM); 0.613 in test [2] (first compound 1000 µM); 0.215 in test [3] (first compound 0.08 µM); 0.207 in test [3] (first compound 0.253 µM). In addition, the relative viability in test [3] (first compound 0.8 µM) came to 0.202; in test [3] (first compound 2.53 µM) it was 0.159; in test [3] (first compound 8 µM) it was 0.192; in test [4] (first compound 31.62 µM), 0.905; in test [4] (first compound 100 µM), 0.813; in test [4] (first compound 316.23 µM), 0.635. The relative viability in test [4] (first compound 1000 µM) stood at 0.506.

In the case of NCI-H3122, the relative viability in test [1] (first compound 10 µM) came out at 0.488; in test [1] (first compound 31.62 µM) it was 0.588; in test [1] (first compound 100 µM), 0.459; in test [1] (first compound 316.23 µM), 0.437; in test [1] (first compound 1000 µM), 0.5; in test [2] (first compound 10 µM), 0.824. Moreover, the relative viability in test [2] (first compound 31.62 µM) stood at 0.97; in test [2] (first compound 100 µM), 0.921; in test [2] (first compound 316.23 µM), 0.863; in test [2] (first compound 1000 µM) it was 0.886; in test [3] (first compound 0.08 µM) it was 0.858; in test [3] (first compound 0.253 µM), 0.666. For the same cell line, the relative viability in test [3] (first compound 0.8 µM) turned out to be 0.836; in test [3] (first compound 2.53 µM), 0.845; in test [3] (first compound 8 µM), 0.538; in test [4] (first compound 10 µM), 0.442; in test [4] (first compound 31.62 µM), 0.555; in test [4] (first compound 100 µM), 0.587. For the same cell line, the relative viability in test [4] (first compound 316.23 µM) worked out at 0.54; in test [4] (first compound 1000 µM) it was 0.507.
